How the values were obtained:
[1] = biological target: T1, human E3 ubiquitin-protein ligase RNF31 (HOIP) (Homo sapiens, UniProt Q96EP0); experiment: Cell-free HTRF-based HOIP inhibition assay; format: biochemical
T1 sequence (Q96EP0 695-1072 limits assumed): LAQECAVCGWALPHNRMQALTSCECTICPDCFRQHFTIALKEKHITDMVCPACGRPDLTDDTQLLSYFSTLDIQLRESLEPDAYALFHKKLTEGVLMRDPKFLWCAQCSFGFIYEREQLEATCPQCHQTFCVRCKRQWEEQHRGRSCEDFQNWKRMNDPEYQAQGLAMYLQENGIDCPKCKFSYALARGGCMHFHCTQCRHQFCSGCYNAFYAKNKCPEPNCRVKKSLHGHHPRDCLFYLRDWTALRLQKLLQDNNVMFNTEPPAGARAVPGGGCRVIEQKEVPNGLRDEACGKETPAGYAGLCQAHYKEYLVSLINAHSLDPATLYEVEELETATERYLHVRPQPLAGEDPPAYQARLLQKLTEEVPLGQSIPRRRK
Experimental: This assay was performed in the following steps: • a) synthesis of recombinant fragment of human E3 ubiquitin-protein ligase RNF31 (HOIP), expressed with purity >90% in E. coli system (the protein was prepared as 1 mg/mL stock in a standard formulation); • b) incubation of the compounds in a typical concentration range: 100-0.005 μM, at a final DMSO conc. 1% with a mixture of HOIP and ubiquitin activating enzyme E1 at 25° C., for 1 h at 25° C.; • c) followed by addition of a ubiquitination solution including E2 and substrates (the reaction proceeds for 2.5 h at 25° C.); and • d) HTRF detection was performed using a PHERAstar FSX (BMG Labtech) plate reader (excitation at 337 nm, dual emissions at 665 and 620 nm).

[2] = test system: bladder carcinoma RT4 cell line; experiment: TNF-α-induced cytotoxicity assay (CellTiter-Glo viability); format: cell-based; details: Homo sapiens, RT-4, 72 h
Experimental: A viability assay, using bladder carcinoma RT4 cell line, was used for identifying the potential inhibitory effect of tested compounds on HOIP activity. The viability was determined by CellTiter-Glo Luminescent Cell Viability Assay (G7571, Promega) which measures the ability of generating a luminescent signal proportional to the amount of ATP present in living cells. The assay consists of a few steps: • a) the cells were routinely sub cultivated twice a week with standard complete growth medium composition; • b) cells were preparated for the assay by creating a cell suspension at the density of 0.05 mln cells/mL and dispensed into plates (ViewPlate-384, PerkinElmer) resulting in 1000 cells/well; • c) cells were stimulated with 1.25 ng/mL TNFα and with compounds and incubated for 72 h at 37° C. in the atmosphere with 5% CO2; and • d) for detection cytotoxicity was measured with CellTiter-Glo® Luminescent Cell Viability Assay based on the method described by the manufacturer.

## CS(=O)(=O)/C=C/CNC(=O)c1cc2c([nH]c1=O)CCCC2 [Example 15, N-[(2E)-3-methanesulfonylprop-2-en-1-yl]-2-oxo-1,2,5,6,7,8-hexahydroquinoline-3-carboxamide]
[1]
  IC50: ≤ 10 µM

## N#CC1(C(=O)N2CCc3[nH]c(=O)c(C(=O)NC/C=C/S(=O)(=O)c4ccccc4)cc3C2)CCC1 [Example 111, N-[(2E)-3-(benzenesulfonyl)prop-2-en-1-yl]-6-(1-cyanocyclobutanecarbonyl)-2-oxo-1,2,5,6,7,8-hexahydro-1,6-naphthyridine-3-carboxamide]
[1]
  IC50: ≤ 10 µM

## N=S(=O)(/C=C/CNC(=O)c1cc2c([nH]c1=O)CCCC2)c1ccc(N2CCCCC2=O)cc1 (stereo not shown) [Example 176, N-[(2E)-3-[imino(oxo)[4-(2-oxopiperidin-1-yl)phenyl]-λ^6-sulfanyl]prop-2-en-1-yl]-2-oxo-1,2,5,6,7,8-hexahydroquinoline-3-carboxamide]
[1]
  IC50: ≤ 1 µM

## COc1ccc(S(=O)(=O)/C=C/CNC(=O)c2cc3c([nH]c2=O)CCCCC3)cc1F [Example 37, N-[(2E)-3-(3-fluoro-4-methoxybenzenesulfonyl)prop-2-en-1-yl]-2-oxo-1H,2H,5H,6H,7H,8H,9H-cyclohepta[b]pyridine-3-carboxamide]
[1]
  IC50: ≤ 10 µM

## N=S(=O)(/C=C/CNC(=O)c1cc2c([nH]c1=O)CCCC2)c1cccc(OC(F)(F)F)c1 (stereo not shown) [Example 168, N-[(2E)-3-[imino(oxo)[3-(trifluoromethoxy)phenyl]-λ^6-sulfanyl]prop-2-en-1-yl]-2-oxo-1,2,5,6,7,8-hexahydroquinoline-3-carboxamide]
[1]
  IC50: ≤ 0.1 µM
[2]
  IC50: ≤ 1 µM

## N=S(=O)(/C=C/CNC(=O)c1cc2c([nH]c1=O)CCCC2)c1ccc(N2CCCC2)cc1 (stereo not shown) [Example 162, N-[(2E)-3-[imino(oxo)[4-(Pyrrolidin-1-yl)phenyl]-λ^6-sulfanyl]prop-2-en-1-yl]-2-oxo-1,2,5,6,7,8-hexahydroquinoline-3-carboxamide]
[1]
  IC50: ≤ 0.1 µM
[2]
  IC50: ≤ 1 µM

## CNc1ccc(S(=N)(=O)/C=C/CNC(=O)c2cc3c([nH]c2=O)CCCC3)cc1 (stereo not shown) [Example 174, N-[(2E)-3-{imino[4-(methylamino)phenyl]oxo-λ^6-sulfanyl}prop-2-en-1-yl]-2-oxo-1,2,5,6,7,8-hexahydroquinoline-3-carboxamide]
[1]
  IC50: ≤ 1 µM
[2]
  IC50: ≤ 1 µM

## COc1ccc(S(=N)(=O)/C=C/CNC(=O)c2ccc[nH]c2=O)cc1F (stereo not shown) [Example 186, N-[(2E)-3-[(3-fluoro-4-methoxyphenyl)(imino)oxo-λ^6-sulfanyl]prop-2-en-1-yl]-2-oxo-1,2-dihydropyridine-3-carboxamide]
[1]
  IC50: ≤ 1 µM
[2]
  IC50: ≤ 10 µM

## COc1ccc(S(=N)(=O)/C=C/CNC(=O)c2cc3c([nH]c2=O)C(C)(C)CCC3)cc1F (stereo not shown) [Example 155, N-[(2E)-3-[(3-fluoro-4-methoxyphenyl)(imino)oxo-λ^6-sulfanyl]prop-2-en-1-yl]-8,8-dimethyl-2-oxo-1,2,5,6,7,8-hexahydroquinoline-3-carboxamide]
[1]
  IC50: ≤ 10 µM
[2]
  IC50: ≤ 10 µM

## O=C(NC/C=C/S(=O)(=O)c1ccccc1)c1cc2c([nH]c1=O)CCN(C(=O)C1CC(F)(F)C1)C2 [Example 102, N-[(2E)-3-(benzenesulfonyl)prop-2-en-1-yl]-6-(3,3-difluorocyclobutanecarbonyl)-2-oxo-1,2,5,6,7,8-hexahydro-1,6-naphthyridine-3-carboxamide]
[1]
  IC50: ≤ 10 µM

## O=C(NC/C=C/S(=O)(=O)c1ccccc1)c1cc2c([nH]c1=O)CCN(C(=O)C1CCC(F)(F)CC1)C2 [Example 108, N-[(2E)-3-(benzenesulfonyl)prop-2-en-1-yl]-6-(4,4-difluorocyclohexanecarbonyl)-2-oxo-1,2,5,6,7,8-hexahydro-1,6-naphthyridine-3-carboxamide]
[1]
  IC50: ≤ 10 µM

## CC(C)(C)S(=O)(=O)/C=C/CNC(=O)c1cc2c([nH]c1=O)CCCC2 [Example 23, N-[(2E)-3-(2-methylpropane-2-sulfonyl)prop-2-en-1-yl]-2-oxo-1,2,5,6,7,8-hexahydroquinoline-3-carboxamide]
[1]
  IC50: ≤ 100 µM

## N=S(=O)(/C=C/CNC(=O)c1cc2c([nH]c1=O)CCCC2)Cc1ccccc1 (stereo not shown) [Example 157, N-[(2E)-3-[benzyl(imino)oxo-λ^6-sulfanyl]prop-2-en-1-yl]-2-oxo-1,2,5,6,7,8-hexahydroquinoline-3-carboxamide]
[1]
  IC50: ≤ 10 µM

## O=C(NC/C=C/S(=O)(=O)c1ccccc1)c1cc2c([nH]c1=O)CCN(C(=O)C1CCN(c3ccccc3)C1)C2 (stereo not shown) [Example 118, N-[(2E)-3-(benzenesulfonyl)prop-2-en-1-yl]-2-oxo-6-(1-phenylpyrrolidine-3-carbonyl)-1,2,5,6,7,8-hexahydro-1,6-naphthyridine-3-carboxamide]
[1]
  IC50: ≤ 1 µM

## CC(/C=C/S(=O)(=O)c1ccccc1)NC(=O)c1cc2c([nH]c1=O)CCCC2 (stereo not shown) [Example 14, N-[(3E)-4-(benzenesulfonyl)but-3-en-2-yl]-2-oxo-1,2,5,6,7,8-hexahydroquinoline-3-carboxamide]
[1]
  IC50: ≤ 100 µM

## O=C(NC/C=C/S(=O)(=O)C1CCCC1)c1cc2c([nH]c1=O)CCCC2 [Example 17, N-[(2E)-3-(cyclopentanesulfonyl)prop-2-en-1-yl]-2-oxo-1,2,5,6,7,8-hexahydroquinoline-3-carboxamide]
[1]
  IC50: ≤ 10 µM

## O=C(NC/C=C/S(=O)(=O)c1ccc(Cl)cc1)c1cc(-c2ccccc2)c[nH]c1=O [Example 130, N-[(2E)-3-(4-chlorobenzenesulfonyl)prop-2-en-1-yl]-2-oxo-5-phenyl-1,2-dihydropyridine-3-carboxamide]
[1]
  IC50: ≤ 10 µM

## CC(=O)N1CCc2[nH]c(=O)c(C(=O)NC/C=C/S(=O)(=O)c3ccccc3)cc2C1 [Example 13, 6-acetyl-N-[(2E)-3-(benzenesulfonyl)prop-2-en-1-yl]-2-oxo-1,2,5,6,7,8-hexahydro-1,6-naphthyridine-3-carboxamide]
[1]
  IC50: ≤ 10 µM

## N=S(=O)(/C=C/CNC(=O)c1cc2c([nH]c1=O)CCCC2)c1ccc(N2CCCCC2)cc1 (stereo not shown) [Example 161, N-[(2E)-3-[imino(oxo)[4-(piperidin-1-yl)phenyl]-λ^6-sulfanyl]prop-2-en-1-yl]-2-oxo-1,2,5,6,7,8-hexahydroquinoline-3-carboxamide]
[2]
  IC50: ≤ 1 µM

## COC(C)(C)CC(=O)N1CCc2[nH]c(=O)c(C(=O)NC/C=C/S(=O)(=O)c3ccccc3)cc2C1 [Example 124, N-[(2E)-3-(benzenesulfonyl)prop-2-en-1-yl]-6-(3-methoxy-3-methylbutanoyl)-2-oxo-1,2,5,6,7,8-hexahydro-1,6-naphthyridine-3-carboxamide]
[1]
  IC50: ≤ 10 µM

## COCCC(=O)N1CCc2[nH]c(=O)c(C(=O)NC/C=C/S(=O)(=O)c3ccccc3)cc2C1 [Example 105, N-[(2E)-3-(benzenesulfonyl)prop-2-en-1-yl]-6-(3-methoxypropanoyl)-2-oxo-1,2,5,6,7,8-hexahydro-1,6-naphthyridine-3-carboxamide]
[1]
  IC50: ≤ 1 µM

## CC(C)S(=O)(=O)/C=C/CNC(=O)c1cc2c([nH]c1=O)CCCC2 [Example 18, 2-oxo-N-[(2E)-3-(propane-2-sulfonyl)prop-2-en-1-yl]-1,2,5,6,7,8-hexahydroquinoline-3-carboxamide]
[1]
  IC50: ≤ 10 µM

## CC(C)S(=O)(=O)/C=C\CNC(=O)c1cc2c([nH]c1=O)CCCC2 [Example 20, 2-oxo-N-[(2Z)-3-(propane-2-sulfonyl)prop-2-en-1-yl]-1,2,5,6,7,8-hexahydroquinoline-3-carboxamide]
[1]
  IC50: ≤ 100 µM
